{
  "source": "patent US20190091190A1",
  "about": "“COMBINATION THERAPY FOR TREATMENT OF MULTIPLE SCLEROSIS” (FWP IP ApS, priority 2012, published 2019)",
  "origin": "cited, not measured here",
  "key": {"patients with RRMS [1]": {"test_system": "patients with RRMS", "details": "for reduction of 12-week confirmed disability progression as measured by EDSS: at 2 years"}, "RRMS patients [2]": {"test_system": "RRMS patients", "details": "0.6 mg once-daily oral"}, "RRMS patients [3]": {"test_system": "RRMS patients"}, "patients with RRMS [4]": {"test_system": "patients with RRMS", "details": "for reduction of lymphocyte counts: after 1 month; for patients remaining relapse-free: 12 months"}, "[5]": {"test_system": "patients with EDSS scores of 0-5.5 and relapses", "details": "for reduction of frequency of MS relapses vs. placebo: 24 months"}, "RRMS patients [6]": {"test_system": "RRMS patients", "details": "for time to first relapse during the two years of the study: 45.6% on placebo"}, "patients with RRMS [7]": {"test_system": "patients with RRMS", "details": "7 mg po once-daily"}, "RRMS patients [8]": {"test_system": "RRMS patients", "remark": "listed apart in the source"}, "[9]": {"details": "7 mg and 14 mg, add-on to IFN"}, "[10]": {"details": "7 mg or 14 mg added to glatiramer acetate, vs placebo added"}},
  "note": "Read-outs that look alike come from different tables or passages of the source.",
  "data": [
    {"compound": "COC(=O)/C=C/C(=O)OC", "note": "[dimethylfumarate, trans-1,2-Ethylenedicarboxylic acid dimethyl ester]", "values": [
      {"measurement": "reduction of annualized relapse rate versus placebo", "setting": "patients with RRMS [1]; 240 mg po BID", "result": 44, "unit": "%"},
      {"measurement": "reduction of new T1-hypointense lesions", "setting": "patients with RRMS [1]; 240 mg po BID", "result": 57, "unit": "%"},
      {"measurement": "reduction of number of new or newly enlarging T2-hyperintense lesions", "setting": "patients with RRMS [1]; 240 mg po BID", "result": 71, "unit": "%"},
      {"measurement": "reduction of proportion of patients who relapsed", "setting": "patients with RRMS [1]; 240 mg po BID", "result": 34, "unit": "%"},
      {"measurement": "reduction of 12-week confirmed disability progression as measured by EDSS", "setting": "patients with RRMS [1]; 240 mg po BID", "result": 21, "unit": "%"},
      {"measurement": "reduction of annualized relapse rate versus placebo", "setting": "patients with RRMS [1]; 240 mg po TID", "result": 51, "unit": "%"},
      {"measurement": "reduction of new T1-hypointense lesions", "setting": "patients with RRMS [1]; 240 mg po TID", "result": 65, "unit": "%"},
      {"measurement": "reduction of number of new or newly enlarging T2-hyperintense lesions", "setting": "patients with RRMS [1]; 240 mg po TID", "result": 73, "unit": "%"},
      {"measurement": "reduction of proportion of patients who relapsed", "setting": "patients with RRMS [1]; 240 mg po TID", "result": 45, "unit": "%"},
      {"measurement": "reduction of 12-week confirmed disability progression as measured by EDSS", "setting": "patients with RRMS [1]; 240 mg po TID", "result": 24, "unit": "%"},
      {"measurement": "most common adverse effects", "setting": "patients with RRMS [1]; dimethylfumarate groups (BID and TID)", "result": "flushing and gastrointestinal (GI) events"},
      {"measurement": "reduction in annualized relapse rate versus placebo", "setting": "patients with RRM; 240 po BID", "result": 53, "unit": "%"},
      {"measurement": "reduction in proportion of patients who relapsed at 2 years versus placebo (primary endpoint)", "setting": "patients with RRM; 240 po BID", "result": 49, "unit": "%"},
      {"measurement": "reduction in annualized relapse rate versus placebo", "setting": "patients with RRM; 240 po TID", "result": 48, "unit": "%"},
      {"measurement": "reduction in proportion of patients who relapsed at 2 years versus placebo (primary endpoint)", "setting": "patients with RRM; 240 po TID", "result": 50, "unit": "%"}
    ]},
    {"compound": "CCN(C(=O)c1c(O)c2c(Cl)cccc2n(C)c1=O)c1ccccc1", "note": "[laquinimod]", "values": [
      {"measurement": "reduction in ARR", "setting": "RRMS patients [2]; 24 months, p=0.0024", "result": 23, "unit": "%"},
      {"measurement": "reduction in progression of brain atrophy", "setting": "RRMS patients [2]; p<0.0001", "result": 33, "unit": "%"},
      {"measurement": "reduction in the risk of EDDS progression", "setting": "RRMS patients [2]; p=0.0122", "result": 36, "unit": "%"},
      {"measurement": "reduced ARR", "setting": "RRMS patients [3]; 0.6 mg once-daily oral, pre-specified sensitivity analysis corrected for baseline imbalances", "result": 21, "unit": "%"},
      {"measurement": "reduction in the risk of EDSS progression", "setting": "RRMS patients [3]; 0.6 mg, corrected analysis, p=0.044", "result": 34, "unit": "%"},
      {"measurement": "reduction in brain volume loss", "setting": "RRMS patients [3]; 0.6 mg, corrected analysis, p=<0.0001", "result": 28, "unit": "%"},
      {"measurement": "primary endpoint of reduction in ARR versus placebo", "setting": "RRMS patients [3]; 0.6 mg, uncorrected, p=0.075", "result": "did not reach statistical significance"}
    ]},
    {"compound": "CCCCCCCCc1ccc(CCC(N)(CO)CO)cc1", "note": "[fingolimod]", "values": [
      {"measurement": "AE leading to the discontinuation of study medication", "setting": "patients with RRMS [4]; 0.5 mg", "result": 5.6, "unit": "%"},
      {"measurement": "overall number of SAE", "setting": "patients with RRMS [4]; 0.5 mg", "result": 7.0, "unit": "%"},
      {"measurement": "patients who developed macular edema", "setting": "patients with RRMS [4]; 0.5 mg", "result": 0.5, "unit": "%"},
      {"measurement": "reduction of lymphocyte counts", "setting": "patients with RRMS [4]; 0.5 mg", "result": 73, "unit": "%"},
      {"measurement": "1-year relapse rate lower than with Avonex", "setting": "patients with RRMS [4]; 0.5 mg/day oral", "result": 52, "unit": "%"},
      {"measurement": "patients remaining relapse-free", "setting": "patients with RRMS [4]; 0.5 mg/day oral", "result": 83, "unit": "%"},
      {"measurement": "AE leading to the discontinuation of study medication", "setting": "patients with RRMS [4]; 1.25 mg", "result": 10.0, "unit": "%"},
      {"measurement": "overall number of SAE", "setting": "patients with RRMS [4]; 1.25 mg", "result": 10.7, "unit": "%"},
      {"measurement": "patients who developed macular edema", "setting": "patients with RRMS [4]; 1.25 mg", "result": 1, "unit": "%"},
      {"measurement": "reduction of lymphocyte counts", "setting": "patients with RRMS [4]; 1.25 mg", "result": 77, "unit": "%"},
      {"measurement": "1-year relapse rate lower than with Avonex", "setting": "patients with RRMS [4]; 1.25 mg/day oral", "result": 38, "unit": "%"},
      {"measurement": "patients remaining relapse-free", "setting": "patients with RRMS [4]; 1.25 mg/day oral", "result": 80, "unit": "%"},
      {"measurement": "time to development of transient, dose-dependent reduction in heart rate", "setting": "patients with RRMS [4]; after the initial administration", "result": "≤ 1", "unit": "h"},
      {"measurement": "AEs that led to discontinuation of the study drug", "setting": "[5]; 0.5 mg", "result": "7.5 % of patients"},
      {"measurement": "lymphopenia of less than 0.2×10^9 per liter", "setting": "[5]; 0.5 mg", "result": 3.5, "unit": "%"},
      {"measurement": "reduction of frequency of MS relapses vs. placebo", "setting": "[5]; 0.5 mg/day", "result": 54, "unit": "%"},
      {"measurement": "reduction of risk of disability progression vs. placebo", "setting": "[5]; 0.5 mg/day, confirmed after 3 months", "result": 30, "unit": "%"},
      {"measurement": "reduction of risk of disability progression vs. placebo", "setting": "[5]; 0.5 mg/day, confirmed after 6 months", "result": 37, "unit": "%"},
      {"measurement": "AEs that led to discontinuation of the study drug", "setting": "[5]; 1.25 mg", "result": "14.2 % of patients"},
      {"measurement": "lymphopenia of less than 0.2×10^9 per liter", "setting": "[5]; 1.25 mg", "result": 5.4, "unit": "%"},
      {"measurement": "macular edema diagnosed", "setting": "[5]; 1.25 mg", "result": "seven"},
      {"measurement": "reduction of frequency of MS relapses vs. placebo", "setting": "[5]; 1.25 mg/day", "result": 60, "unit": "%"},
      {"measurement": "reduction of risk of disability progression vs. placebo", "setting": "[5]; 1.25 mg/day, confirmed after 3 months", "result": 32, "unit": "%"},
      {"measurement": "reduction of risk of disability progression vs. placebo", "setting": "[5]; 1.25 mg/day, confirmed after 6 months", "result": 40, "unit": "%"}
    ]},
    {"compound": "C/C(O)=C(\\C#N)C(=O)Nc1ccc(C(F)(F)F)cc1", "note": "[teriflunomide, (Z)-2-cyano-3-hydroxy-but-2-enoic acid-(4′-trifluoro-methylphenyl)-amide]", "values": [
      {"measurement": "reduction of annualized relapse rate (ARR) at 2 years compared to placebo", "setting": "RRMS patients [6]; 7 mg p.o. once-daily", "result": 31.2, "unit": "%"},
      {"measurement": "reduction of risk of disability progression", "setting": "RRMS patients [6]; 7 mg p.o. once-daily", "result": 24, "unit": "%"},
      {"measurement": "reduction of the burden of disease (MRI) compared to placebo", "setting": "RRMS patients [6]; 7 mg p.o. once-daily", "result": 39, "unit": "%"},
      {"measurement": "time to first relapse during the two years of the study", "setting": "RRMS patients [6]; 7 mg", "result": 53.7, "unit": "%"},
      {"measurement": "reduction of annualized relapse rate (ARR) at 2 years compared to placebo", "setting": "RRMS patients [6]; 14 mg p.o. once-daily", "result": 31.5, "unit": "%"},
      {"measurement": "reduction of risk of disability progression", "setting": "RRMS patients [6]; 14 mg p.o. once-daily", "result": 30, "unit": "%"},
      {"measurement": "reduction of the burden of disease (MRI) compared to placebo", "setting": "RRMS patients [6]; 14 mg p.o. once-daily", "result": 67, "unit": "%"},
      {"measurement": "time to first relapse during the two years of the study", "setting": "RRMS patients [6]; 14 mg", "result": 56.5, "unit": "%"},
      {"measurement": "relapse rate", "setting": "patients with RRMS [7]", "result": 0.410},
      {"measurement": "annualized relapse rate compared to placebo", "setting": "RRMS patients [8]; 7 mg p.o. once-daily", "result": "significant reduction"},
      {"measurement": "risk of 12 wk sustained accumulation of disability compared to placebo", "setting": "RRMS patients [8]; 7 mg p.o. once-daily", "result": "no significant difference"},
      {"measurement": "reduction in annualized relapse rate compared to placebo", "setting": "RRMS patients [8]; 14 mg p.o. once-daily", "result": 36.3, "unit": "%"},
      {"measurement": "reduction in the risk of 12wk sustained accumulation of disability compared to placebo", "setting": "RRMS patients [8]; 14 mg p.o. once-daily", "result": 31.5, "unit": "%"},
      {"measurement": "reduction in annualized relapse rate", "setting": "[9]", "result": "no significant effect"},
      {"measurement": "reducing T1-Gd lesions", "setting": "[10]", "result": "more effective than placebo"}
    ]},
    {"compound": "Glatiramer acetate", "values": [
      {"measurement": "reduction of new T1-hypointense lesions", "setting": "patients with RRMS [1]; 20 mg sc once-daily", "result": 41, "unit": "%"},
      {"measurement": "reduction of number of new or newly enlarging T2-hyperintense lesions", "setting": "patients with RRMS [1]; 20 mg sc once-daily", "result": 54, "unit": "%"},
      {"measurement": "reduction of proportion of patients who relapsed", "setting": "patients with RRMS [1]; 20 mg sc once-daily", "result": 29, "unit": "%"},
      {"measurement": "reduction of 12-week confirmed disability progression as measured by EDSS", "setting": "patients with RRMS [1]; 20 mg sc once-daily", "result": 7, "unit": "%"}
    ]}
  ]
}
